This note sets out measurements from patent publication US20150064227A1, “Sporicidal Formulation Including Botanical Extracts/Botanical-Derived Ingredients” (priority 2011, published 2015).

One assay deals with bacterial spores. The experiment in a line: Sporicidal Efficacy Test, spore species not given. Format: cell-based. Conditions: under the Sporicidal Efficacy Test; concentration not given. From the text: (§1) To determine the kill rate of solutions of interest against bacterial spores.
(§2) Materials: • 1. Test solutions of interest • 2. Clostridium difficile ATCC 43593 • 3. Geobacillus stearothermophilus CICC 10142 • 4. Filter sterilized MilliQ water • 5. Neutralization broth (prepared according to directions below) • 6. Brain Heart Infusion (BHI) agar plates with 0.15% Sodium Taurocholate • 7. Tryptic Soy Agar (TSA) plates • 8. Taurocholic acid sodium salt hydrate (Sigma-Aldrich T-4009) • 9. Phosphate buffered saline (PBS) pH 7.2 • 10. Fetal Bovine Serum (FBS) • 11. Sterile plating beads • 12. Sterile Eppendorf vials (1.5 mL) • 13. Sterile tubes (15 mL) • 14. Pipettes and sterile pipette tips (100 μL and 1000 μL) • 15. Incubator capable of 37±3° C. • 16. Anaerobic rectangular jar (7 Liter AnaeroPack System commercially available from Mitsubishi Gas Chemical Co.) with 3 GasPak satchels (BD GasPak EZ, #260678)
(§3) Procedure: • 1. Prepare culture stock of organism of interest to 10^7 CFU/ml in PBS. • 2. Thoroughly vortex the stock culture for ten minutes at medium-high speed. • 3. Dilute a small portion of the stock culture in MilliQ filter sterilized water and add FBS soil load to the inoculum to achieve a concentration of 5% v/v FBS. • 4. Place the inoculum in a sonicating water bath for five cycles of one minute on, one minute off • 5. Add 100 μL of spore culture to sterile vial containing 900 μL of test solution and vortex. • 6. After the test exposure time, vortex the vials. • 7. Transfer 100 μL of test solution and spore mixture to sterile tubes containing 900 μL neutralization broth to neutralize. • 8. Place the neutralized samples in a sonicating water bath for five cycles of one minute on, one minute off • 9. Vortex each tube. For C. difficile, pipette 100 μL of each neutralized sample on BHI+0.15% sodium taurocholate media plates (prepared in lab according to dehydrated powder instructions). For G. stearothermophilus, pipette 100 μL of each neutralized sample onto TSA plates. Spread using sterile beads. • 10. Prepare a control sample by adding the spore culture to 900 μL of filter sterilized MQ water and repeat steps 3-6 above. Dilute control code to achieve 10^2 CFU/ml. • 11. For C. difficile, place plates in anaerobic jars or boxes (with appropriate number of catalase pouches) or in the anaerobic chamber and incubate for 48±8 hours at 37±3° C. For G. stearothermophilus, incubate plates aerobically for 48±8 hours at […]. • 12. After incubation, enumerate colonies and record results. Calculate Log10 reduction by comparing the number of colonies recovered from the test solution versus those recovered with the control.
(§4) Neutralization Broth Preparation: • 1. Mix the following ingredients: • 1 L Letheen broth • 0.3% ppm Lecithin • 3% ppm Tween 80 • 0.1% ppm Histidine • 2. Solution is sterilized by autoclave. • 3. Catalase (0.1-0.2%) is added when completely cooled and then filter sterilized.
Regarding `COC(=O)C1=CO[C@@H](O[C@@H]2O[C@H](CO)[C@@H](O)[C@H](O)[C@H]2O)[C@@H]2C(CO)=CC[C@H]12` [geniposide], the “sporicidal activity (in words)” value is “None of these ingredients derived from botanical extracts illustrated sporicidal activity”.

In the case of `O=c1c(-c2ccc(O)cc2)coc2c([C@@H]3O[C@H](CO)[C@@H](O)[C@H](O)[C@H]3O)c(O)ccc12` [puerarin], the “sporicidal activity (in words)” value is listed as “None of these botanical extracts illustrated sporicidal activity”.

For the compound `CC12CCC(CC1)C(C)(C)O2` [cineole], the “sporicidal activity (in words)” value is reported as “None of these ingredients derived from botanical extracts illustrated sporicidal activity”. On to `CC(C)=CCc1cc2c(cc1O)O[C@H](c1ccc(O)cc1)CC2=O` [bavachin], for which the “sporicidal activity (in words)” value is “None of these ingredients derived from botanical extracts illustrated sporicidal activity”. Same read-out and setting: then `CC(C)=CCOc1c2occc2cc2ccc(=O)oc12` [imperatonin], with “None of these ingredients derived from botanical extracts illustrated sporicidal activity”.

In the case of `CC(C)=CCCC1(C)CC(O)c2c(O)c3c(c(CC=C(C)C)c2O1)OC12C(=CC4CC1C(C)(C)OC2(C/C=C(\C)C(=O)O)C4=O)C3=O` (stereo not drawn) [Neogambogic acid], the “sporicidal activity (in words)” value is reported as “demonstrated sporicidal activity”. Turning to `CC(C)=CCc1cc(-c2coc3cc(O)ccc3c2=O)ccc1O` [neobavaisoflavone], the “sporicidal activity (in words)” value is recorded as “None of these ingredients derived from botanical extracts illustrated sporicidal activity”. For the compound `COc1ccc2ccc(=O)oc2c1CC=C(C)C` [osthole], the “sporicidal activity (in words)” value is “None of these botanical extracts illustrated sporicidal activity”. As for `COc1ccc(-c2oc3c(CC=C(C)C)c(O)cc(O)c3c(=O)c2O)cc1` [icaritin], the “sporicidal activity (in words)” value is “None of these ingredients derived from botanical extracts illustrated sporicidal activity”.

With `O=c1c(-c2ccc(O)cc2)coc2cc(O)cc(O)c12` [genistein], the “sporicidal activity (in words)” value is recorded as “None of these botanical extracts illustrated sporicidal activity”. For the compound `CC(C)=CCOc1c2ccoc2cc2oc(=O)ccc12` [isoimperatorin], the “sporicidal activity (in words)” value is on record as “None of these ingredients derived from botanical extracts illustrated sporicidal activity”. Same read-out and setting: as for `Cc1cccc2c3c(ccc12)C1=C(C(=O)C3=O)[C@@H](C)CO1` [dihydrotanshinone], the entry is “None of these ingredients derived from botanical extracts illustrated sporicidal activity”; as for `C[C@H](N)C(=O)O` [L-alanine], “None of these ingredients derived from botanical extracts illustrated sporicidal activity”. The same measure, in the same setting: as for `O=c1cc(-c2ccccc2)oc2cc(O)c(O)c(O)c12` [noroxylin], the entry is “None of these botanical extracts illustrated sporicidal activity”; as for bavachinin, “None of these ingredients derived from botanical extracts illustrated sporicidal activity”; as for `O=c1c(OC2OC(CO)C(O)C(O)C2O)c(-c2ccc(O)c(O)c2)oc2cc(O)cc(O)c12` (stereo not drawn) [isoquercetrin], “None of these ingredients derived from botanical extracts illustrated sporicidal activity”.

As to `O=c1cc(-c2ccc(O)c(O)c2)oc2cc(O)cc(O)c12` [luteolin], the “sporicidal activity (in words)” value is “None of these botanical extracts illustrated sporicidal activity”. On the same count and under the same terms, as for `NCCC(=O)O` [β-alanine], the entry is “None of these ingredients derived from botanical extracts illustrated sporicidal activity”; as for `O=C(O)c1ccc(O)cc1` [p-hydroxybenzoic acid], “None of these ingredients derived from botanical extracts illustrated sporicidal activity”; as for `CC[C@H](/C=C/[C@@H](C)[C@H]1CC[C@H]2[C@@H]3CC=C4C[C@@H](O)CC[C@]4(C)[C@H]3CC[C@]12C)C(C)C` [stigmasterol], “None of these ingredients derived from botanical extracts illustrated sporicidal activity”. In the case of `OC[C@H]1O[C@@H](OCCc2ccc(O)cc2)[C@H](O)[C@@H](O)[C@@H]1O` [salidroside], the “sporicidal activity (in words)” value is listed as “None of these botanical extracts illustrated sporicidal activity”. The same measure, in the same setting: then `O=C(O)C=Cc1ccc(O)cc1` [p-hydroxy-cinnamic acid], with “None of these botanical extracts illustrated sporicidal activity”; and `CC(C)=CCC[C@]1(C)C=Cc2c(O)c3c(c(CC=C(C)C)c2O1)O[C@]12C(=C[C@@H]4C[C@H]1C(C)(C)O[C@@]2(C/C=C(/C)C(=O)O)C4=O)C3=O` [Gambogic acid], with “demonstrated sporicidal activity”; and `O=C(O)c1ccc(O)c(O)c1` [protocatechuic acid], with “None of these ingredients derived from botanical extracts illustrated sporicidal activity”. As for `O=c1c(O)c(-c2ccc(O)c(O)c2)oc2cc(O)cc(O)c12` [quercetin], the “sporicidal activity (in words)” value is “None of these botanical extracts illustrated sporicidal activity”. The same measure, in the same setting: then `Cc1coc2c1C(=O)C(=O)c1c-2ccc2c1CCCC2(C)C` [tanshinone IIA], with “None of these ingredients derived from botanical extracts illustrated sporicidal activity”; and `O=C(O)[C@@H]1CCCN1` [L-proline], with “None of these ingredients derived from botanical extracts illustrated sporicidal activity”; and `O=C(O)/C=C/c1ccc(O)c(O)c1` [caffeic acid], with “None of these ingredients derived from botanical extracts illustrated sporicidal activity”. For the compound `CC1(C)CC[C@]2(C(=O)O)CC[C@]3(C)C(=CC[C@@H]4[C@@]5(C)CC[C@H](O)C(C)(C)[C@@H]5CC[C@]43C)[C@@H]2C1` [oleanolic acid], the “sporicidal activity (in words)” value is recorded as “None of these ingredients derived from botanical extracts illustrated sporicidal activity”. Same read-out and setting: as for `O=c1c(O)c(-c2ccc(O)cc2)oc2cc(O)cc(O)c12` [kaempferol], the entry is “None of these botanical extracts illustrated sporicidal activity”. Turning to `COc1cc(/C=C/C(=O)O)ccc1O` [ferulic acid], the “sporicidal activity (in words)” value is listed as “None of these ingredients derived from botanical extracts illustrated sporicidal activity”.

The subject of the next assay is C. diff. spores (Clostridium difficile ATCC 43593). Description: Sporicidal Efficacy Test against C. diff. spores. The assay is classed as cell-based. Conditions: botanical-derived ingredient 5.9 mg/ml in 75 % ethanol / 25 % water by volume; 5 min contact time.
Excerpt: as §1, §2, §3, §4
Regarding `C[C@H]1COC2=C1C(=O)C(=O)c1c2ccc2c1CCCC2(C)C` [Cryptotanshinone], the “Log Reduction (5 min contact time)” value is recorded as 3.43.

Staying with this assay, now noted: botanical-derived ingredient 10 mg/ml in 75 % ethanol / 25 % water by volume; 5 min contact time.
Take `CC(C)=CCCC1(C)CC(O)c2c(O)c3c(c(CC=C(C)C)c2O1)OC12C(=CC4CC1C(C)(C)OC2(C/C=C(\C)C(=O)O)C4=O)C3=O` (stereo not drawn) [Neogambogic acid]: the “Log Reduction (5 min contact time)” value came out at 3.96. On the same count and under the same terms, then `CC(C)=CCC[C@]1(C)C=Cc2c(O)c3c(c(CC=C(C)C)c2O1)O[C@]12C(=C[C@@H]4C[C@H]1C(C)(C)O[C@@]2(C/C=C(/C)C(=O)O)C4=O)C3=O` [Gambogic acid], with 3.96.

Still in this assay, the particulars now being: concentration not given.
Turning to `Cc1cccc2c3c(ccc12)C1=C(C(=O)C3=O)[C@@H](C)CO1` [dihydrotanshinone], the “sporicidal activity against C. diff. (in words)” value is “no detectable effect”. For `Cc1coc2c1C(=O)C(=O)c1c-2ccc2c1CCCC2(C)C` [tanshinone IIA], the “sporicidal activity against C. diff. (in words)” value is reported as “no detectable effect”.
